The record followed here is paper PMC7462507, “Noncompetitive Inhibition of Bovine Liver Catalase by Lawsone: Kinetics, Binding Mechanism and in silico Modeling Approaches” (Iranian Journal of Pharmaceutical Research : IJPR, 2020).

pKi: −log10 of the molar value.

The target in the assay is T1, bovine liver catalase (BLC) (Bos taurus, UniProt P00432).
T1 construct: gene CAT
T1 sequence (P00432 2-527): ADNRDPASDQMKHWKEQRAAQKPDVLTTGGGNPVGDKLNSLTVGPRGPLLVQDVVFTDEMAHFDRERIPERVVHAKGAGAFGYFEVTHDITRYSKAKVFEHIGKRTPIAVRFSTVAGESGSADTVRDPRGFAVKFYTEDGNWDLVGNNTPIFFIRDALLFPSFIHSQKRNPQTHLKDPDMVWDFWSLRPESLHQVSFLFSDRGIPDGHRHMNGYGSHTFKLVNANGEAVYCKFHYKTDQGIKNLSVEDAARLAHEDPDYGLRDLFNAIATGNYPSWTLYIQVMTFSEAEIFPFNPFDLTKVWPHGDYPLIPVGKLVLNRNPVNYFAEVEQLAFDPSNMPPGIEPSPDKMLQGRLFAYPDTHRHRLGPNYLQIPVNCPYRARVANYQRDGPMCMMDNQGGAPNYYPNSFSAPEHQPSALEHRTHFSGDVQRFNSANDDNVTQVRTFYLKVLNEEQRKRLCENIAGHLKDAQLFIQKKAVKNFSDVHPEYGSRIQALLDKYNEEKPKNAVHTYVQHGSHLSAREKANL
Put plainly: UV kinetics of H2O2 decomposition at […] nm, Lineweaver-Burk (IC50 about […]); supported by fluorescence quenching, UV-vis and ATR-FTIR. It counts as biochemical.

In turn, `O=C1C=C(O)C(=O)c2ccccc21` [LAW, 2-hydroxy-1,4-naphtoquinone] gave a negative-log Ki (pKi) of 4.80.

For orientation: pKi means the negative decadic logarithm of the Ki, by convention in mol/L.
